Laboratory results published in publication PMC3836994, “Killer Bee Molecules: Antimicrobial Peptides as Effector Molecules to Target Sporogonic Stages of Plasmodium” (PLoS Pathogens, 2013).
Non-standard residues stand in square brackets, D forms with d. No end group written: not given here. pGlu = O=C1CC[C@@H](C(=O)O)N1

What was measured:
[1] = system: Anopheles gambiae Sua 4.0 cells; assay: Sua 4.0 mosquito cell viability (erythrosin B exclusion); type: cell-based; parameters: dose or concentration left out as unconfirmed; settings: after 48 h culture; for Average viability of cells (3 replicates), peptide: erythrosin B exclusion, 100 cells in triplicate wells; for Reduction in cell viability: versus control
Procedure: (§1) To establish potential effects of AMPs on mosquito cells, the An. gambiae Sua 4.0 cell line was used. This facilitated an initial high-throughput screening and provided insights into AMP toxicity, mode of action (lytic or other) and speed of action. Sua 4.0 cells were maintained at 27°C in Schneider's insect medium supplemented with 10% FBS (foetal bovine serum) in T25 culture flasks (Fisher, UK).
(§2) Each AMP was tested separately to establish if it affected cell viability and growth. […] Cells were maintained for 3, 6, 24 or 48 h, after which they were resuspended and a sub-sample from duplicate wells counted using a haemocytometer. To establish cell viability after 48 h (whether simply arrested in development or non-viable), resuspended cells were added to an equal volume of 5% erythrosin B vital dye and viable cells excluding the stain were counted. The viability of 100 cells in triplicate wells was recorded. Each AMP assay was performed in triplicate and included a negative control minus the peptide (5 µl of water alone added to the medium) and a further control of 5 µl of 10% SDS (sodium dodecyl sulphate) substituted for the AMP as this causes 100% cell lysis.

P. berghei = P. berghei infections in Anopheles stephensi (oocyst prevalence and intensity); type: in vivo, Plasmodium berghei; settings: for Prevalence (proportion of infected mosquitoes), peptide: 50 µM peptide in gametocytaemic mouse blood fed to An. stephensi; for Intensity (mean number of oocysts, range in parentheses), peptide: 50 µM peptide, An. stephensi
Procedure: To assess the effects of AMPs on parasites in vivo, mouse blood containing P. berghei gametocytes was obtained by cardiac puncture and 475 µl was rapidly mixed with 25 µl (50 µM final concentration) of AMP. This mixture was fed to 100 nulliparous 3–5 day old female An. stephensi. A further 475 µl of blood from the same infection was mixed with 25 µl of distilled water to act as a control. Mosquitoes were maintained at 19°C for optimum parasite development. Between 30 and 50 mosquitoes were dissected after 10 days. Mosquito wing length, numbers of retained eggs and oocysts were recorded in triplicate experiments carried out on different mosquito cohorts.

[2] = system: Anopheles gambiae Sua 4.0 cells; assay: Sua 4.0 mosquito cell growth (cell counts); type: cell-based; settings: 25 µM AMP; for Average number of cells over 3 replicates, peptide: seeded 30×10^4/ml, mean of 3 experiments
Procedure: as §1, §2

P. berghei ookinetes = assay: P. berghei ookinete viability in vitro (erythrosin B); type: cell-based, Plasmodium berghei; settings: for Average ookinete viability (3 reps), peptide / Reduction in ookinete viability: 30 min; for Reduction in ookinete viability: versus control
Procedure: Our primary aim was to target parasites in mosquitoes before they cross the midgut wall, therefore AMPs were first assessed for their ability to kill ookinetes in vitro. […] Ookinete cultures of P. berghei were established from gametocytaemic blood as previously described. Parasites were enriched using cold 0.17M ammonium chloride after 18 h of culture and washed thoroughly with PBS (phosphate buffered saline). Parasites were seeded in triplicate wells of a 96-well microtitre plate at a density of 1×10^5/ml in a volume of 47.5 µl Schneider's insect medium (Invitrogen) with 2.5 µl of the test AMP (final concentration of 50 µM). Ookinetes were incubated for 30 min in conjunction with triplicate control wells containing medium with 2.5 µl of water instead of AMP. A sub-sample of parasites was then added to an equal volume of 5% erythrosin B to assess viability (150 ookinetes in total, taken from 3 wells). Each of the 33 AMPs was screened in this way and assays were performed 3 times. AMPs displaying a high degree of toxicity (>90% of ookinetes displaying erythrosin B staining) underwent further ookinete assays using a concentration of 100 µM AMP. To assess synergistic effects, combinations of two peptides were also tested at a concentration of 25 µM per AMP, in the assay described above.

[3] = system: An. gambiae (Mali strain); assay: Mosquito oviposition after blood feed containing AMP; type: in vivo, Anopheles gambiae; settings: for Significance of effect on oviposition: 50 µM AMP, one-way ANOVA, peptide vs control; for Mean no. of eggs laid per mosquito, peptide: after first feed with 50 µM AMP, eggs laid over two nights, averaged per surviving mosquito, 3 or 4 replicates
Procedure: (§3) Female An. gambiae (Mali strain, 3–5 days old) were used to establish the effects of AMPs on mosquito longevity and fecundity in the absence of confounding factors introduced with parasite infection. Two hundred 3–6 day old females were fed on human O+ whole blood supplemented with 50 µM AMP (or water control, 1 ml total volume) via feeding chambers of a Hemotek membrane feeding system. Fully engorged mosquitoes were randomly moved into four separate cages, each containing 25 mosquitoes, to facilitate monitoring. Mortality rates were recorded daily for a 10-day period, and oviposition sites were provided on the second and third night post-feeding. A second blood feed containing the same AMP was administered 7 days later to mimic the likelihood that mosquitoes would feed at least twice in the field during the development of sporogonic stages of the malaria parasite. Oviposition sites were again provided to assess fecundity through the number of eggs laid as an average per surviving mosquito. Assays for each AMP were repeated in triplicate on separate generations of mosquitoes. Due to egg retention under experimental conditions, egg production is best measured by dissecting mosquitoes that have not been provided with an oviposition site. However, this is not a feasible method of determining fecundity when longevity is also being measured.

[4] = system: An. gambiae (Mali strain); assay: Mosquito longevity after blood feeds containing AMP; type: in vivo, Anopheles gambiae; settings: for Significance of effect on longevity over 10 days: 50 µM AMP, Kaplan-Meier, Wilcoxon, peptide vs control; for Percent alive, peptide: over 10 days, 50 µM AMP in human blood, feeds on days 0 and 7, 3 or 4 replicates
Procedure: as §3

P. falciparum = assay: Field P. falciparum from gametocyte carriers membrane-fed to An. gambiae (Mali); type: in vivo, Plasmodium falciparum; settings: Replicate 1, 50 µM; for Oocyst prevalence (oocyst positive mosquitoes), peptide: blood of gametocyte carriers, progeny of field An. gambiae; for Oocyst intensity (mean number of oocysts per gut, range in parentheses), peptide: field parasites and mosquitoes
Excerpt: Nyaganabougou, a village approximately 60 km south-west of the Malian capital, Bamako, was used as a site for the source of donors of malaria-infected blood. Due to its proximity to the river Niger, which provides perennial mosquito breeding sites, Nyaganabougou has high numbers of infected individuals and an extended transmission season. Mosquitoes used to establish the An. gambiae Mali colony used for this study were originally collected in the village of Kenieroba (a distance of 15 km from Nyaganabougou). Potential male and female gametocyte carriers between the ages of 6–10 were screened by thick smear and parasite species and density determined by local staff, led by Saibou Doumbia.
Gametocyte carriers were taken to the Malaria Research and Training Centre at the University of Bamako for blood donation. Approximately 4 ml of blood was extracted from carriers and immediately divided into 3 Hemotek membrane feeders for testing 2 separate AMPs and one control for each carrier. Peptides were added to 950 µl of gametocytaemic blood for a final concentration of 50 µM. All parasite-positive individuals were subsequently treated appropriately for parasites and associated symptoms, as determined by, and carried out by, local health workers in Nyaganabougou.
Approximately 120 adult female An. gambiae (Mali, 4–7 days old) were starved overnight, and allowed to feed on the gametocytaemic blood/AMP mix for 30 min. Engorged females were maintained on 10% glucose with 0.05% PABA for 8 days before dissection. No oviposition sites were provided so that fecundity could be measured by determining retained eggs. Mosquito wing length, numbers of retained eggs and oocysts were recorded, and triplicate peptide experiments were carried out on different mosquito cohorts, using blood from different donors. Where possible, a minimum of 50 mosquitoes were dissected for each condition.

[5] = 50 µM of single peptide, n = 150 ookinetes per treatment per replicate

CC[C@H](C)[C@H](N)C(=O)N[C@@H](CC(C)C)C(=O)N1CCC[C@H]1C(=O)N[C@@H](Cc1c[nH]c2ccccc12)C(=O)N[C@@H](CCCCN)C(=O)N[C@@H](Cc1c[nH]c2ccccc12)C(=O)N1CCC[C@H]1C(=O)N[C@@H](Cc1c[nH]c2ccccc12)C(=O)N[C@@H](Cc1c[nH]c2ccccc12)C(=O)N1CCC[C@H]1C(=O)N[C@@H](Cc1c[nH]c2ccccc12)C(=O)N[C@@H](CCCNC(=N)N)C(=O)N[C@@H](CCCNC(=N)N)C(N)=O [Indolicidin]
Average viability of cells (3 replicates), peptide [1]: 61%
Reduction in cell viability [1]: 36%

CKQSCSFGPFTFVCDGNTK (also: bicyclic or more (positions not given here)) [Duramycin, A lantibiotic from bacteria, 19 aa (Sigma D3168)]
Prevalence (proportion of infected mosquitoes), peptide (P. berghei; Replicate 1): 80% (50)
Intensity (mean number of oocysts, range in parentheses), peptide (P. berghei; Replicate 1): 17 (0–114)
Prevalence (proportion of infected mosquitoes), peptide (P. berghei; Replicate 2): 88% (50)
Intensity (mean number of oocysts, range in parentheses), peptide (P. berghei; Replicate 2): 59 (0–294)
Prevalence (proportion of infected mosquitoes), peptide (P. berghei; Replicate 3): 98% (50)
Intensity (mean number of oocysts, range in parentheses), peptide (P. berghei; Replicate 3): 135 (0–319)
Reduction in cell number (compared to control) ([2]; 3 hrs in culture): 42%
Average number of cells over 3 replicates, peptide ([2]; 3 hrs in culture, haemocytometer count of duplicate wells): 180000 mL⁻¹
Reduction in cell number (compared to control) ([2]; 24 hrs in culture): 73%
Average number of cells over 3 replicates, peptide ([2]; 24 hrs in culture): 130000 mL⁻¹
Reduction in cell number (compared to control) ([2]; 48 hrs in culture): 88%
Average number of cells over 3 replicates, peptide ([2]; 48 hrs in culture): 90000 mL⁻¹
Average ookinete viability (3 reps), peptide (P. berghei ookinetes; [5]): 11%
Reduction in ookinete viability (P. berghei ookinetes; 50 µM of single peptide): 88%
Average ookinete viability (3 reps), peptide (P. berghei ookinetes; 100 µM of single peptide): 1%
Reduction in ookinete viability (P. berghei ookinetes; 100 µM of single peptide): 99%
Significance of effect on oviposition [3]: N/S
Mean no. of eggs laid per mosquito, peptide [3]: 39
Average viability of cells (3 replicates), peptide [1]: 0%
Reduction in cell viability [1]: 100%
Significance of effect on longevity over 10 days [4]: N/S
Percent alive, peptide [4]: 84%

GLLKRIKTLL [Anoplin, 10 aa peptide isolated from the solitary wasp, homology to Mastoparan X]
Prevalence (proportion of infected mosquitoes), peptide (P. berghei; Replicate 1): 66% (44)
Intensity (mean number of oocysts, range in parentheses), peptide (P. berghei; Replicate 1): 21 (0–147)
Prevalence (proportion of infected mosquitoes), peptide (P. berghei; Replicate 2): 98% (50)
Intensity (mean number of oocysts, range in parentheses), peptide (P. berghei; Replicate 2): 74 (0–580)
Prevalence (proportion of infected mosquitoes), peptide (P. berghei; Replicate 3): 100% (50)
Intensity (mean number of oocysts, range in parentheses), peptide (P. berghei; Replicate 3): 177 (1–666)
Average ookinete viability (3 reps), peptide (P. berghei ookinetes; [5]): 10%
Reduction in ookinete viability (P. berghei ookinetes; 50 µM of single peptide): 89%
Average ookinete viability (3 reps), peptide (P. berghei ookinetes; 100 µM of single peptide): 2%
Reduction in ookinete viability (P. berghei ookinetes; 100 µM of single peptide): 98%
Significance of effect on oviposition [3]: N/S
Mean no. of eggs laid per mosquito, peptide [3]: 36
Significance of effect on longevity over 10 days [4]: N/S
Percent alive, peptide [4]: 80%

RRWQWRMKKLG [Lactoferricin B, Product of pepsin cleavage of bovine lactoferrin]
Oocyst prevalence (oocyst positive mosquitoes), peptide (P. falciparum): 46% (37)
Oocyst intensity (mean number of oocysts per gut, range in parentheses), peptide (P. falciparum): 2 (0–17)

Scorpine
Efficacy against malaria parasites (in words) (P. berghei ookinetes; in our hands, rodent or human malaria, test not specified further, actual concentration may have been lower than expected): not effective against rodent or human malaria

[pGlu]GMIGTLTSKRIKQ [Levitide, Isolated from skin secretions of Xenopus laevis]
Oocyst prevalence (oocyst positive mosquitoes), peptide (P. falciparum): 8% (60)
Oocyst intensity (mean number of oocysts per gut, range in parentheses), peptide (P. falciparum): <1 (0–1)
